The NIST ThermoML archive (doi:10.1021/je100932m)
Numbers after ± are expanded uncertainties.

Conditions: Liquid

Row | Compound | vapor or sublimation pressure (337.57 K) [kPa] | vapor or sublimation pressure (329.97 K) [kPa]
1 | CO [methanol] | 101.3 ± 0.86 | 
2 | COC(C)=O [methyl ethanoate] |  | 101.3 ± 0.86
